From patent US9918956B2 (SICHUAN JIUZHANG BIOLOGICAL SCIENCE AND TECHNOLOGY CO., LTD, priority 2013, dated 2018)

Assays:
[1] = pH-degradation reaction rate of chlorogenic acid in buffer solutions
[2] = adjuvant compatibility, high temperature (60° C.) test; assay type: physicochemical
[3] = adjuvant compatibility, high humidity (92.5% relative humidity) test; assay type: physicochemical; details: 25° C.
[4] = adjuvant compatibility, bright light exposure test; assay type: physicochemical; details: light 4500 lx ± 500 lx
Source text: Samples were taken and examined on 0, 5th, 10th days, respectively, and results were depicted in Table 7.

stability of crude drugs = assay type: physicochemical; details: light and heat
[5] = hygroscopicity of chlorogenic acid crude drug; assay type: physicochemical
[6] = pH of chlorogenic acid solutions
[7] = from pH-degradation reaction rate curve

Concentration of chlorogenic acid ([1]; buffer pH 1.5, 0 h): 108.07 µg/mL
Concentration of chlorogenic acid ([1]; buffer pH 1.5, 3 h): 97.95 µg/mL
Concentration of chlorogenic acid ([1]; buffer pH 1.5, 7 h): 92.20 µg/mL
Concentration of chlorogenic acid ([1]; buffer pH 1.5, 11 h): 78.65 µg/mL
Concentration of chlorogenic acid ([1]; buffer pH 1.5, 17 h): 76.80 µg/mL
Concentration of chlorogenic acid ([1]; buffer pH 1.5, 22 h): 68.79 µg/mL
Concentration of chlorogenic acid ([1]; buffer pH 2.0, 0 h): 108.42 µg/mL
Concentration of chlorogenic acid ([1]; buffer pH 2.0, 3 h): 98.91 µg/mL
Concentration of chlorogenic acid ([1]; buffer pH 2.0, 7 h): 97.79 µg/mL
Concentration of chlorogenic acid ([1]; buffer pH 2.0, 11 h): 99.67 µg/mL
Concentration of chlorogenic acid ([1]; buffer pH 2.0, 17 h): 90.77 µg/mL
Concentration of chlorogenic acid ([1]; buffer pH 2.0, 22 h): 88.26 µg/mL
Concentration of chlorogenic acid ([1]; buffer pH 3.0, 0 h): 107.51 µg/mL
Concentration of chlorogenic acid ([1]; buffer pH 3.0, 3 h): 103.02 µg/mL
Concentration of chlorogenic acid ([1]; buffer pH 3.0, 7 h): 101.91 µg/mL
Concentration of chlorogenic acid ([1]; buffer pH 3.0, 11 h): 102.01 µg/mL
Concentration of chlorogenic acid ([1]; buffer pH 3.0, 17 h): 96.77 µg/mL
Concentration of chlorogenic acid ([1]; buffer pH 3.0, 22 h): 95.18 µg/mL
Concentration of chlorogenic acid ([1]; buffer pH 4.0, 0 h): 106.38 µg/mL
Concentration of chlorogenic acid ([1]; buffer pH 4.0, 7 h): 95.78 µg/mL
Concentration of chlorogenic acid ([1]; buffer pH 4.0, 11 h): 91.29 µg/mL
Concentration of chlorogenic acid ([1]; buffer pH 4.0, 17 h): 85.09 µg/mL
Concentration of chlorogenic acid ([1]; buffer pH 4.0, 22 h): 80.21 µg/mL
Concentration of chlorogenic acid ([1]; buffer pH 5.1, 0 h): 105.96 µg/mL
Concentration of chlorogenic acid ([1]; buffer pH 5.1, 3 h): 97.99 µg/mL
Concentration of chlorogenic acid ([1]; buffer pH 5.1, 7 h): 88.87 µg/mL
Concentration of chlorogenic acid ([1]; buffer pH 5.1, 11 h): 81.70 µg/mL
Concentration of chlorogenic acid ([1]; buffer pH 5.1, 17 h): 66.59 µg/mL
Concentration of chlorogenic acid ([1]; buffer pH 5.1, 22 h): 55.83 µg/mL
Concentration of chlorogenic acid ([1]; buffer pH 6.2, 0 h): 105.67 µg/mL
Concentration of chlorogenic acid ([1]; buffer pH 6.2, 3 h): 67.91 µg/mL
Concentration of chlorogenic acid ([1]; buffer pH 6.2, 7 h): 43.91 µg/mL
Concentration of chlorogenic acid ([1]; buffer pH 6.2, 11 h): 33.46 µg/mL
Concentration of chlorogenic acid ([1]; buffer pH 6.2, 17 h): 22.91 µg/mL
Concentration of chlorogenic acid ([1]; buffer pH 6.2, 22 h): 18.48 µg/mL
pH value of most stable solution [1, 7]: 3
pH values at which aqueous solutions were more stable [1, 7]: 2-4
Content ([2]; day 0): 99.51%
Description ([2]; day 0): Off-white
Loss on drying ([2]; day 0): 2.31%
Related substances Others 2 ([2]; day 0): 0.154%
Related substances Others 3 ([2]; day 0): 0.211%
Related substances Others 4 ([2]; day 0): 0.035%
Related substances Others Total ([2]; day 0): 0.504%
Content ([2]; day 5): 99.36%
Description ([2]; day 5): Dark brown
Loss on drying ([2]; day 5): 2.25%
Related substances Others 2 ([2]; day 5): 0.160%
Related substances Others 3 ([2]; day 5): 0.294%
Related substances Others 4 ([2]; day 5): 0.039%
Related substances Others Total ([2]; day 5): 0.627%
Content ([2]; day 10): 99.31%
Description ([2]; day 10): Dark brown
Loss on drying ([2]; day 10): 2.13%
Related substances Others 1 ([2]; day 10): 0.143%
Related substances Others 2 ([2]; day 10): 0.175%
Related substances Others 3 ([2]; day 10): 0.306%
Related substances Others 4 ([2]; day 10): 0.047%
Related substances Others Total ([2]; day 10): 0.670%
Content ([3]; day 0): 99.51%
Description ([3]; day 0): Off white
Loss on drying ([3]; day 0): 2.31%
Related substances Others 2 ([3]; day 0): 0.154%
Related substances Others 3 ([3]; day 0): 0.211%
Related substances Others 4 ([3]; day 0): 0.035%
Related substances Others Total ([3]; day 0): 0.504%
Content ([3]; day 5): 99.47%
Description ([3]; day 5): Pale yellow
Loss on drying ([3]; day 5): 4.22%
Related substances Others 2 ([3]; day 5): 0.157%
Related substances Others 3 ([3]; day 5): 0.203%
Related substances Others 4 ([3]; day 5): 0.036%
Related substances Others Total ([3]; day 5): 0.518%
Content ([3]; day 10): 99.43%
Description ([3]; day 10): Pale yellow
Loss on drying ([3]; day 10): 4.75%
Related substances Others 2 ([3]; day 10): 0.174%
Related substances Others 3 ([3]; day 10): 0.221%
Related substances Others 4 ([3]; day 10): 0.041%
Related substances Others Total ([3]; day 10): 0.570%
Content ([4]; day 0): 99.51%
Description ([4]; day 0): Off white
Loss on drying ([4]; day 0): 2.31%
Related substances Others 2 ([4]; day 0): 0.154%
Related substances Others 3 ([4]; day 0): 0.211%
Related substances Others 4 ([4]; day 0): 0.035%
Related substances Others Total ([4]; day 0): 0.504%
Content ([4]; day 5): 99.15%
Description ([4]; day 5): Dark brown
Loss on drying ([4]; day 5): 2.38%
Related substances Others 2 ([4]; day 5): 0.483%
Related substances Others 3 ([4]; day 5): 0.223%
Related substances Others 4 ([4]; day 5): 0.037%
Related substances Others Total ([4]; day 5): 0.871%
Content ([4]; day 10): 99.07%
Description ([4]; day 10): Dark brown
Loss on drying ([4]; day 10): 2.54%
Related substances Others 2 ([4]; day 10): 0.498%
Related substances Others 4 ([4]; day 10): 0.044%
stability of crude drug (stability of crude drugs): sensitive to light and heat
hygroscopicity [5]: had hygroscopicity
pH value of solution ([6]; […] solution before freeze-drying): about 3.0
pH value of solution ([6]; concentration 0.03%): about 3.5
Compound: O=C(/C=C/c1ccc(O)c(O)c1)O[C@@H]1C[C@](O)(C(=O)O)C[C@@H](O)[C@H]1O [chlorogenic acid]
lgk ([1]; pH 1.5): −1.7036
constants of reaction rate k ([1]; pH 1.5, first order degradation): 0.0198
lgk ([1]; pH 2.0): −2.0947
constants of reaction rate k ([1]; pH 2.0, first order degradation): 0.0080
lgk ([1]; pH 3.0): −2.2931
constants of reaction rate k ([1]; pH 3.0, first order degradation): 0.0051
lgk ([1]; pH 4.0): −1.9027
lgk ([1]; pH 5.1): −1.5412
constants of reaction rate k ([1]; pH 5.1, first order degradation): 0.0288
lgk ([1]; pH 6.2): −1.1144
constants of reaction rate k ([1]; pH 6.2, first order degradation): 0.0768
